The target in this assay is T1, hNKCC1 (NT17, 3xFlag-YFP-tagged human NKCC1) (Homo sapiens, UniProt P55011).
T1 construct: gene SLC12A2; full-length human NKCC1 from synthetic cDNA with 262 silent mutations; N-terminal 3xFlag and YFP (mVenus) tags kept; pcDNA3.1-neo, stably expressed in HEK-293 cells
T1 sequence (P55011 1-1212): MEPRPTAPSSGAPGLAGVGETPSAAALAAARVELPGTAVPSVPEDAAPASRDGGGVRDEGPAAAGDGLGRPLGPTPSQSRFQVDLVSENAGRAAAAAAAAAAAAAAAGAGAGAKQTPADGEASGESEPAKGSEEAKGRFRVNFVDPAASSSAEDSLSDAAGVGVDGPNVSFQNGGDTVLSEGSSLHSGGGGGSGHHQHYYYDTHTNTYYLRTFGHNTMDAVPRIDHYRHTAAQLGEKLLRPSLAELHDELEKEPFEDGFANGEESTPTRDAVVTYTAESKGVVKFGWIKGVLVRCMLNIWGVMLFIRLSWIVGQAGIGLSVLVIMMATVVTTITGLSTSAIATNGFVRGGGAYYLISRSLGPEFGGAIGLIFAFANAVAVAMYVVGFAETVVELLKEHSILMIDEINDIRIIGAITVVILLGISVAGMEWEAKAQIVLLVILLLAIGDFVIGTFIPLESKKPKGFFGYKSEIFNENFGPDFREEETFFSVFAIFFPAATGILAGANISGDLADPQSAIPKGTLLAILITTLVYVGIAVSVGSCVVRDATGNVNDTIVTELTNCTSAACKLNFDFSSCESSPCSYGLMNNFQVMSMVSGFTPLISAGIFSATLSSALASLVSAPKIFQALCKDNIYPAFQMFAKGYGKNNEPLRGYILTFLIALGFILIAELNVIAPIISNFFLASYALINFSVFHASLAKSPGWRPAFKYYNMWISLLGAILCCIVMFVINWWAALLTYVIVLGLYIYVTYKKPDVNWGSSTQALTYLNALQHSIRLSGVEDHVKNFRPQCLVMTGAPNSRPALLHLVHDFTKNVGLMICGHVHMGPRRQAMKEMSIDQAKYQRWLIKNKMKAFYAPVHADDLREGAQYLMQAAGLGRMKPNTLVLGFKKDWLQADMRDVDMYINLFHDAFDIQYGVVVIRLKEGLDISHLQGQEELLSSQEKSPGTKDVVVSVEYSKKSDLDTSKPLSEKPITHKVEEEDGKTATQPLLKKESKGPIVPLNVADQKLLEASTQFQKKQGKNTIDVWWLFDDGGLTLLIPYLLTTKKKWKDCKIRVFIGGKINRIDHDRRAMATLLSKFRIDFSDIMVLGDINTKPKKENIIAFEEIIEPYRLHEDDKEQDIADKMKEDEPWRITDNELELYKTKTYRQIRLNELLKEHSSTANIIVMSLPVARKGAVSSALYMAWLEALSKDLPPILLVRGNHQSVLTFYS
The assay can be described thus: influx inhibition in transfected HEK-293 cells, single-site fit. In kind it is cell-based. The following applies: read-out: Ki (bumet).

Structures are written as SMILES.

In publication PMC3855340, “Functional Expression of Human NKCC1 from a Synthetic Cassette-Based cDNA: Introduction of Extracellular Epitope Tags and Removal of Cysteines” (PLoS ONE, 2013) one finds Ki data, which are given here for one compound.

A word on the Ki: it is a dissociation constant, usually derived from enzyme kinetics or from competition with a known ligand.

As for `CCCCNc1cc(C(=O)O)cc(S(N)(=O)=O)c1Oc1ccccc1` [bumetanide], the Ki came to 460 ± 100 nM.
